In US8409595B2, “Method for decreasing sebum production” (Medicis Pharmaceutical Corporation, priority 2003, dated 2013):

What was measured:
sebum secretion = settings: in vivo; cited from earlier work
[1] = system: sebaceous glands of Syrian hamster ears; experiment: Syrian hamster ear model of sebum secretion, HPLC of cholesterol ester and wax ester; format: in vivo; settings: topical 1 w/v %, 4 weeks; for % Reduction in CE, change vs. relevant vehicle control: cholesterol ester; for % Reduction in CE, change vs. relevant vehicle control / % Reduction in WE, change vs. relevant vehicle control: twice daily, five days a week, right ear, negative = increase; for Sum CE + WE, change vs. relevant vehicle control: summation of % reduction in CE and in WE; for effect on CE and WE (sebum) secretion, in words: compared to the control; for % Reduction in WE, change vs. relevant vehicle control: wax ester
Method: Luderschmidt et al describes an animal model for testing whether compounds are capable of modulating sebum secretion. Arch. Derm. Res. 258, 185-191 (1977). This model uses Syrian hamsters, whose ears contain sebaceous glands. Compounds can be administered to these animals to determine if a test agent is capable of modulating sebum production
Testing for sebum inhibition was carried out in the following manner. Male Syrian hamsters aged 9 to 10 weeks were introduced into the laboratory environment and acclimated for 2 weeks prior to use in the study. Each group consisted of 5 animals and were run in parallel with vehicle and positive controls. Prior to administration, 10 mg of each compound was dissolved in 1 mL of Universal solvent (ethanol/propylene glycol (70/30% v/v) to achieve a final concentration of 1 w/v %.
Animals were dosed topically twice daily, five days a week, for 4 weeks. Each dose consisted of 25 micro liters of vehicle control or drug. The dose was applied to the ventral surfaces of both the right and left ears. All animals were sacrificed approximately 18-24 hours after the final dose. The right ears were collected from each animal and used for sebum analysis.
The ears were prepped for HPLC analysis in the following manner. One 8 mm distal biopsy punch was taken, just above the anatomical “V” mark in the ear to normalize the sample area. The punch was pulled apart. The ventral biopsy surface (the area where the topical dose was directly applied to the sebaceous glands) was retained for testing and the dorsal surface of the biopsy punch was discarded.
Tissue samples were blown with N2 gas and stored at −80° C. under nitrogen until HPLC analysis. In addition to ear samples, an aliquot of each drug and vehicle (at least 250 ul) was also stored at −80° C. for inclusion in the HPLC analysis.
HPLC analysis was carried out on an extract of the tissue sample. Tissue samples were contacted with 3 ml of solvent (a 4:1 admixture of 2,2,4-trimethylpentane and isopropyl alcohol). The mixture was shaken for 15 minutes and stored overnight at room temperature, protected from light. The next morning 1 milliliter of water was added to the sample and shaken for 15 minutes. The sample was then centrifuged at approximately 1500 rpm for 15 minutes. Two ml of the organic phase (top layer) was transferred to a glass vial, dried at 37° C., under nitrogen, for approximately 1 hour, and then lyophilized for approximately 48 hours. The samples were then removed from the lyophilizer and each vial was reconstituted with 600 μl of solvent A (trimethylpentane/tetrahydrofuran (99:1). The samples were then recapped and vortexed for 5 minutes.
200 μl of each sample was then transferred to a pre-labeled 200 μl HPLC vial with 200 μL glass inserts. The HPLC vials were placed in the autosampler tray for the Agilent 1100 series HPLC unit. The Agilent 1100 HPLC system consisted of a thermostated autosampler, a quarternary pump, a column heater, and an A/D interface module. All components were controlled by Agilent ChemStation software. A Waters Spherisorb S3W 4.6×100 mm analytical column was maintained at 30° C. by the Agilent column heater unit. The HPLC autosampler was programmed to maintain the sample temperature at 20° C. throughout the run.
10 uL of each sample was injected in triplicate into the column. Two solvents were used for the solvent gradient. Solvent A was an admixture of trimethylpentane and tetrahydrofuran (99:1). Solvent B was ethylacetate. The gradient utilized is described in the table below: […]
The Sedex 75 Evaporative Light Scattering Detector (ELSD) was operated at 45° C. with a gain of 5, and N2 pressure maintained at 3.1 bar. Analog signal obtained by the instrument was sent to the Agilent A/D interface module where it was converted to a digital output. The conversion was based on a 10000 mAU/volt set point and the data rate was set at 10 Hz (0.03 min). […]

SMILES | reduction of sebum secretion (sebum secretion) | % Reduction in CE, change vs. relevant vehicle control [1] | Sum CE + WE, change vs. relevant vehicle control [1] | effect on CE and WE (sebum) secretion, in words [1] | % Reduction in WE, change vs. relevant vehicle control [1]
CC1=C(/C=C/C(C)=C/C=C/C(C)=C\C(=O)O)C(C)(C)CCC1 [Accutane, isotretinoin] | up to 90% | – | – | – | –
CSc1ccc(CN(C(=O)CC(=O)Nc2c(C(C)C)cccc2C(C)C)C(C)C)cc1 [Compound 2] | – | 65% | 96% | comparable results | 31%
COc1ccc(CN(C(=O)CC(=O)Nc2c(C(C)C)cccc2C(C)C)c2ccccn2)cc1 [Compound 3] | – | 51% | 84% | comparable results | 33%
CC(C)c1cccc(C(C)C)c1NC(=O)CC(=O)N(CCN(C)C)Cc1ccccc1 [Compound 4] | – | −1% | −19% | – | −18%
COc1ccc(CN(C(=O)CC(=O)Nc2c(C(C)C)cccc2C(C)C)c2ncccn2)cc1 [Compound 5] | – | 32% | 28% | – | −4%
CC(C)c1cccc(C(C)C)c1NC(=O)CC(=O)N(CCC#N)Cc1ccccc1 [Compound 6] | – | 23% | 22% | – | −1%
CCOC(=O)CN(C(=O)CC(=O)Nc1c(C(C)C)cccc1C(C)C)c1ccccc1 [Compound 7] | – | −67% | −151% | – | −84%
CC(C)c1cccc(C(C)C)c1NC(=O)CC(=O)N(c1ccccc1)C(C)C [Compound 8] | – | −27% | −97% | – | −70%
CC(C)c1cccc(C(C)C)c1NC(=O)CC(=O)CC(c1ccccc1)c1ccccc1 [Compound 9] | – | 7% | 9% | – | 2%
CCCCCCCCCCCCn1nnc(C(C(=O)Nc2c(C(C)C)cccc2C(C)C)c2ccccc2)n1 (stereo not drawn) [Compound 10] | – | −105% | −252% | – | −147%
CCCCCCCCCCCCn1nnc(C(C(=O)Nc2c(OC)cc(OC)cc2OC)c2ccccc2)n1 (stereo not drawn) [Compound 11] | – | −5% | −11% | – | −6%
CCCCCCCCCCCCOP(=O)(CC(=O)Nc1c(C(C)C)cccc1C(C)C)c1ccccc1 (stereo not drawn) [Compound 12] | – | 48% | 92% | – | 44%
CC(C)c1cccc(C(C)C)c1NC(=O)NCC1(c2ccccc2)CCOCC1 [Compound 13] | – | −7% | −14% | – | −7%
CCCCCCCCCCCCCC(=O)CC(=O)Nc1c(C(C)C)cccc1C(C)C [Compound 14] | – | −8% | −23% | – | −15%
CCCCCCCC1CCC(C(=O)Nc2c(C(C)C)cccc2C(C)C)C(=O)O1 (stereo not drawn) [Compound 15] | – | 24% | 38% | – | 14%
CC(C)c1cccc(C(C)C)c1NC(=O)NCC1(c2ccc(CO)cc2)CCCC1 [Compound 16] | – | −1% | −1% | – | 0%

SMILES | reduction of sebum secretion (sebum secretion) | % Reduction in CE, change vs. relevant vehicle control [1] | Sum CE + WE, change vs. relevant vehicle control [1] | effect on CE and WE (sebum) secretion, in words [1] | % Reduction in WE, change vs. relevant vehicle control [1]
CC(C)c1cccc(C(C)C)c1NC(=O)NCC1(c2ccccn2)CCCC1 [Compound 17] | – | −56% | −120% | – | −64%
CCCCCCCCCCCCn1nnc(CC(=O)Nc2c(C)nn(C)c2C)n1 [Compound 18] | – | −23% | −72% | – | −49%
CCCCCCCCCCCCn1nnc(CNC(=O)Nc2c(C(C)C)cccc2C(C)C)n1 [Compound 19] | – | −6% | −5% | – | 1%
CC(C)c1cccc(C(C)C)c1NC(=O)NCC1(c2ccco2)CCC1 [Compound 20] | – | 4% | 3% | – | −1%
COc1ccccc1CN[C@@H](CNC(=O)Nc1c(C(C)C)cccc1C(C)C)c1ccccc1 [Compound 21] | – | 4% | 7% | – | 3%
CCCCCCCN(CCCCCSc1nc(-c2ccccc2)c(-c2ccccc2)[nH]1)C(=O)Nc1ccc(F)cc1F [Compound 22] | – | 20% | 24% | – | 4%
CC(C)c1cccc(C(C)C)c1NC(=O)NCC1(c2cccc(CN(CCO)CCO)c2)CCCC1 [Compound 23] | – | 4% | −80% | – | −84%
CC(C)c1cccc(C(C)C)c1NC(=O)NCC1(c2cccc(CN3CCOCC3)c2)CCCC1 [Compound 24] | – | 20% | 21% | – | 1%
COc1cc(OC)cc(C(NCC(=O)Nc2c(C(C)C)cccc2C(C)C)c2ccccc2)c1 (stereo not drawn) [Compound 25] | – | 10% | 7% | – | −3%
CC(C)c1cccc(C(C)C)c1NC(=O)Nc1nnn(CCCCCCCCCCCO)n1 [Compound 26] | – | 28% | 37% | – | 9%
CC(C)c1cccc(C(C)C)c1NC(=O)NCC(C)c1ccccc1 (stereo not drawn) [Compound 27] | – | −17% | −40% | – | −23%
CC(C)c1cccc(C(C)C)c1NC(=O)NCC1(c2ccccc2)CC1 [Compound 28] | – | 0% | −8% | – | −8%
CC(=O)OC(C(=O)N(CC(=O)Nc1c(C(C)C)cccc1C(C)C)Cc1ccccc1)c1ccccc1 (stereo not drawn) [Compound 29] | – | 19% | 30% | – | 11%
COc1cccc2c1CCC(NC(=O)Nc1c(C(C)C)cccc1C(C)C)C2 (stereo not drawn) [Compound 30] | – | −10% | −44% | – | −34%
CC(C)c1cccc(C(C)C)c1NC(=O)NCCc1c[nH]c2ccccc12 [Compound 31] | – | 9% | 18% | – | 9%
